{"source": "paper PMC8192493", "about": "(Journal of medicinal chemistry, 2021)", "key": {"[1]": {"system": "iron uptake genes isdB, sfaA, sbnC, MW0695 in MRSA-1707 biofilms", "settings": "5 μM; previous work ref 39; cited from earlier work"}, "[2]": {"system": "six MRSA clinical isolates", "assay": "MIC assays against MRSA clinical isolates", "type": "cell-based", "settings": "Staphylococcus aureus, read-out: MIC against six MRSA clinical isolates"}, "[3]": {"system": "MRSA, MRSE, and VRE strains", "assay": "MIC summarised across several Gram-positive strains"}, "[4]": {"system": "iron uptake genes isdB, sfaA, sbnC, MW0695 in MRSA-1707 biofilms", "assay": "RT-qPCR of iron uptake genes in MRSA biofilms", "settings": "established biofilms, 4 h, 1 μM or 1/10 × MBEC"}, "J774 macrophages": {"system": "J774 macrophages", "assay": "Alamar Blue cytotoxicity, J774 macrophages", "type": "cell-based", "settings": "IC50 J774 MΦ and HepG2 vs MIC against MRSA, MRSE, VRE strains"}, "[5]": {"system": "M. tuberculosis H37Ra (ATCC 25177)", "assay": "MIC assay for Mtb H37Ra", "type": "cell-based", "settings": "Mycobacterium tuberculosis, ATCC25177|H37RA, 168 h, read-out: MIC Mtb H37Ra"}, "[6]": {"system": "VRE 700221 (E. faecium ATCC 700221)", "assay": "MIC broth microdilution, VRE 700221", "settings": "16 h"}, "MRSE 35984 biofilms": {"system": "MRSE 35984 biofilms", "assay": "Calgary biofilm device", "settings": "Staphylococcus epidermidis, read-out: MRSE 35984 MBC"}}, "note": "“Also recorded” adds a separate entry of the source.", "data": [{"smiles": "O=C(O)CN(CCN(CC(=O)O)CC(=O)O)CC(=O)O", "note": "[EDTA, ethylenediaminetetraacetic acid]", "values": [{"measurement": "upregulation of iron uptake genes", "setting": "[1]", "value": "do not upregulate"}]}, {"smiles": "Oc1c(Br)cc(Br)c2nc3ccccc3nc12", "note": "[HP 3]", "values": [{"measurement": "MIC", "setting": "[2]", "value": "1.25 to 2.5", "unit": "µM"}]}, {"smiles": "Cc1cccc2nc3c(O)c(Br)c(Cl)c(Br)c3nc12", "note": "[HP 29, 2,4-Dibromo-3-chloro-6-methylphenazin-1-ol]", "values": [{"measurement": "MICs against all Gram-positive strains in the panel", "setting": "[3]", "value": "submicromolar"}, {"measurement": "MIC", "setting": "[2]", "value": "0.06 to 0.12", "unit": "µM"}, {"measurement": "induction of iron starvation (upregulation of iron uptake genes)", "setting": "[4]", "value": "induce rapid iron starvation; also recorded: rapidly induce iron starvation"}, {"measurement": "selectivity index (SI)", "setting": "J774 macrophages", "value": "> 2000"}]}, {"smiles": "Oc1c(Br)c(Cl)c(Br)c2nc3c(Cl)cc(Cl)cc3nc12", "note": "[HP 34, 2,4-Dibromo-3,6,8-trichlorophenazin-1-ol]", "values": [{"measurement": "MIC", "setting": "[2]", "value": "0.47 to 1.25", "unit": "µM"}]}, {"smiles": "CCSc1c(Br)c(O)c2nc3cccc(C)c3nc2c1Br", "note": "[HP 45, 2,4-Dibromo-3-(ethylthio)-6-methylphenazin-1-ol]", "values": [{"measurement": "MIC", "setting": "[2]", "value": "0.31 to 0.63", "unit": "µM"}]}, {"smiles": "c1ccc(CN(CCN(Cc2ccccn2)Cc2ccccn2)Cc2ccccn2)nc1", "note": "[TPEN, N,N,N′,N′-tetrakis(2-pyridinylmethyl)-1,2-ethanediamine]", "values": [{"measurement": "upregulation of iron uptake genes", "setting": "[1]", "value": "do not upregulate"}]}, {"smiles": "CN[C@@H]1[C@H](O[C@H]2[C@H](O[C@H]3[C@H](O)[C@@H](O)[C@H](N=C(N)N)[C@@H](O)[C@@H]3N=C(N)N)O[C@@H](C)[C@]2(O)C=O)O[C@@H](CO)[C@H](O)[C@H]1O", "note": "[streptomycin]", "values": [{"measurement": "MIC", "setting": "[5]", "value": 1.32, "unit": "µM"}]}, {"smiles": "CN[C@H](CC(C)C)C(=O)N[C@H]1C(=O)N[C@@H](CC(N)=O)C(=O)N[C@H]2C(=O)N[C@H]3C(=O)N[C@H](C(=O)N[C@H](C(=O)O)c4cc(O)cc(O)c4-c4cc3ccc4O)[C@H](O)c3ccc(c(Cl)c3)Oc3cc2cc(c3O[C@@H]2O[C@H](CO)[C@@H](O)[C@H](O)[C@H]2O[C@H]2C[C@](C)(N)[C@H](O)[C@H](C)O2)Oc2ccc(cc2Cl)[C@H]1O", "note": "[vancomycin]", "values": [{"measurement": "MIC VRE 700221", "setting": "[6]; BHI, 37 °C, d lowest test concentration", "value": ">100", "unit": "µM"}, {"measurement": "MIC", "setting": "[6]; Enterococcus, ATCC700221|VRE, read-out: MIC VRE 700221", "value": "> 100", "unit": "µM"}, {"measurement": "MBC", "setting": "MRSE 35984 biofilms", "value": 3, "unit": "µM"}]}]}
